The results in this text go back to ChEMBL document CHEMBL1201862, “PubChem BioAssay data set” (2004).

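Step 1: Grow cells in 96-well plates. Step 2: Expose to compound for 48 hours at 5 concentrations. Step 3: Interpolate endpoints linearly; if unreached, use highest concentration. At the GI50, growth is halved.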 The source made the active and inactive calls. Cut-off read from the data, not from the text of the source: active = GI50 up to about 1.1 µM and inactive = higher. Where only a bound is given, the exact number is not on record here.

Test systems include A549; ACHN; HCC 2998; HCT-116; HL-60; HT-29; Hs-578T; K562; LOX IMVI; M14; MDA-MB-231; MDA-MB-435; MOLT-4; NCI-H23; NCI-H460; OVCAR-4; SF-539; SK-MEL-5; SW-620; UO-31.
Common to all, as to assay: NCI anticancer screen, dose series, 48 h

Consider `CC(C)(C)c1cc(C(=O)/C=C/c2ccc(O)c(O)c2O)cc(C(C)(C)C)c1O`, for which the GI50 was 5.06 µM (inactive) in the test on A549; 5.69 µM (inactive) in the test on ACHN; 2.84 µM (inactive) in the test on HCC 2998; 2.73 µM (inactive) in the test on HCT-116; 1.77 µM (inactive) with HL-60; 11.7 µM (inactive) in the test with HT-29. Further, the GI50 in the test with Hs-578T was 3.99 µM (inactive); with K562, 2.81 µM (inactive); in the test on LOX IMVI it was 9.71 µM (inactive); in the test on M14, 5.46 µM (inactive); with MDA-MB-231 it was 12 µM (inactive); with MDA-MB-435, 6.89 µM (inactive). For the same compound, the GI50 in the test on MOLT-4 is 2.49 µM (inactive); with NCI-H23, 4.03 µM (inactive); in the test with NCI-H460, 1.78 µM (inactive); with OVCAR-4, 2.77 µM (inactive); in the test with SF-539, 2.92 µM (inactive); with SK-MEL-5, 5.6 µM (inactive). The GI50 in the test with SW-620 is 2.58 µM (inactive); with UO-31 it was 2.67 µM (inactive).
`O=C1/C(=C/c2ccccc2)CCC/C1=C\c1ccc(O)c(CN2CCCCC2)c1`: the GI50 in the test on A549 was 7.59 µM (inactive); in the test with ACHN, 1.81 µM (inactive); with HCC 2998, 2.39 µM (inactive); in the test with HCT-116, 1.57 µM (inactive); in the test with HL-60, 3.49 µM (inactive); in the test with HT-29, 1.77 µM (inactive). The GI50 in the test with Hs-578T was 3.93 µM (inactive); in the test on K562 it was 3.27 µM (inactive); in the test on LOX IMVI, 1.99 µM (inactive); in the test with M14, 3.26 µM (inactive); in the test on MDA-MB-231, 2.77 µM (inactive); with MDA-MB-435, 2.55 µM (inactive). For the same compound, the GI50 with MOLT-4 was 3.1 µM (inactive); in the test with NCI-H23, 3.96 µM (inactive); in the test with NCI-H460, 4.66 µM (inactive); in the test on OVCAR-4, 5.5 µM (inactive); in the test on SF-539, 2.95 µM (inactive); in the test with SK-MEL-5, 2.92 µM (inactive). The GI50 was 2.39 µM (inactive) with SW-620 and 6.92 µM (inactive) in the test on UO-31.
`CN(C)CCCNc1ccnc2cccc([N+](=O)[O-])c12`: the GI50 with A549 was 12.8 µM (inactive); with ACHN it was 5 µM (inactive); in the test on HCC 2998, 13.3 µM (inactive); in the test on HCT-116, 13.7 µM (inactive); with HL-60, 26.7 µM (inactive); with HT-29, 12.1 µM (inactive). Also, the GI50 in the test with Hs-578T was 26 µM (inactive); in the test with K562, 29.4 µM (inactive); with LOX IMVI it was 13.6 µM (inactive); with M14, 7.05 µM (inactive); with MDA-MB-231, 17.7 µM (inactive); in the test on MDA-MB-435, 15.3 µM (inactive). Also, the GI50 with MOLT-4 is > 100 µM (inactive); in the test on NCI-H23 it was 5.9 µM (inactive); in the test with NCI-H460 it was 6.5 µM (inactive); in the test on OVCAR-4, 6.18 µM (inactive); with SF-539, 15.2 µM (inactive); in the test on SK-MEL-5 it was 10.4 µM (inactive). The GI50 was 17.2 µM (inactive) in the test with SW-620 and 13.3 µM (inactive) in the test on UO-31.
In the case of `CC1=CC(=O)/C(=C/NC(=S)Nc2ccccc2)C(=O)O1`, the GI50 with A549, with ACHN, in the test on HCC 2998, in the test with HCT-116, with HL-60 and in the test with HT-29 was > 100 µM (inactive) in each case. The GI50 with Hs-578T, with K562, in the test on LOX IMVI, in the test on M14, with MDA-MB-231 and with MDA-MB-435 was > 100 µM (inactive) in each case. Moreover, the GI50 in the test with MOLT-4, with NCI-H23, with NCI-H460, in the test on OVCAR-4, in the test on SF-539 and in the test on SK-MEL-5 was > 100 µM (inactive) in each case. Besides, the GI50 in the test on SW-620 and in the test on UO-31 was > 100 µM (inactive) each time.
Turning to `CC(=O)O[C@H]1C(=O)[C@@]2(C)[C@H]([C@H](OC(=O)c3cccc([N+](=O)[O-])c3)[C@]3(O)C[C@H](OC(=O)[C@H](O)[C@@H](NC(=O)c4ccccc4)c4ccccc4)C(C)=C1C3(C)C)[C@]1(OC(C)=O)CO[C@@H]1C[C@@H]2O`, the GI50 in the test on A549 is 0.014 µM (active); with ACHN, 0.151 µM (active); in the test on HCC 2998 it was 0.00762 µM (active); with HCT-116, 0.00533 µM (active); with HL-60 it was < 0.0025 µM (active); with HT-29 it was 0.0043 µM (active). Moreover, the GI50 with Hs-578T is 0.00322 µM (active); in the test with K562, 0.00482 µM (active); with LOX IMVI, 0.00558 µM (active); in the test with M14 it was 0.00619 µM (active); with MDA-MB-231, 0.0122 µM (active); with MDA-MB-435 it was 0.00336 µM (active). Moreover, the GI50 in the test with MOLT-4 is 0.00509 µM (active); with NCI-H23, 0.00912 µM (active); in the test with NCI-H460, 0.00601 µM (active); in the test on OVCAR-4, 3.58 µM (inactive); with SF-539, < 0.0025 µM (active); in the test with SK-MEL-5, 0.00582 µM (active). Further, the GI50 in the test on SW-620 was 0.00706 µM (active); with UO-31, 0.568 µM (active).
Consider `O=C1c2ccccc2C(=O)N1[C@@H](Cc1ccccc1)C(=O)n1cccc1CO`, for which the GI50 with A549, in the test on ACHN, in the test on HCC 2998, in the test with HCT-116, in the test with HL-60 and in the test with HT-29 was > 100 µM (inactive) throughout. In addition, the GI50 in the test on Hs-578T, in the test with K562, in the test with LOX IMVI, in the test on M14, in the test with MDA-MB-231 and in the test with MDA-MB-435 was > 100 µM (inactive) each time. Also, the GI50 with MOLT-4, in the test on NCI-H23, in the test with NCI-H460, with OVCAR-4, in the test on SF-539 and in the test on SK-MEL-5 was > 100 µM (inactive) throughout. Also, the GI50 in the test on SW-620 and in the test on UO-31 was > 100 µM (inactive) throughout.
Consider `Cn1c2cc(Cl)ccc2c2ccc3c(c21)C(=O)C=CC3=O`, for which the GI50 in the test with A549 is > 100 µM (inactive); in the test on ACHN, 16.8 µM (inactive); with HCC 2998 it was > 100 µM (inactive); with HCT-116, 20.8 µM (inactive); with HL-60, 13.5 µM (inactive); with HT-29 it was 31.4 µM (inactive). Moreover, the GI50 in the test with Hs-578T is 46.9 µM (inactive); in the test on K562 it was 3.4 µM (inactive); in the test on LOX IMVI it was 42.5 µM (inactive); in the test with M14 it was 23.7 µM (inactive); in the test on MDA-MB-231 it was 26.9 µM (inactive); in the test with MDA-MB-435 it was 25.4 µM (inactive). The GI50 was 2.75 µM (inactive) with MOLT-4; 20 µM (inactive) in the test on NCI-H23; > 100 µM (inactive) in the test with NCI-H460; 20.7 µM (inactive) in the test on OVCAR-4; > 55 µM (inactive) in the test on SF-539; 39.8 µM (inactive) in the test with SK-MEL-5. The GI50 is 4.4 µM (inactive) with SW-620 and 45.7 µM (inactive) in the test with UO-31.
On to `COc1cc(CCNC2=CC(=O)c3cccnc3C2=O)ccc1O`, for which the GI50 with A549 was 1.56 µM (inactive); in the test on ACHN it was 1.31 µM (inactive); in the test on HCC 2998, 1.73 µM (inactive); in the test on HCT-116, 1.84 µM (inactive); in the test on HL-60, 2.5 µM (inactive); in the test with HT-29, 1.97 µM (inactive). The GI50 is 0.849 µM (active) in the test with Hs-578T; 0.483 µM (active) in the test with K562; 0.284 µM (active) in the test on LOX IMVI; 1.49 µM (inactive) in the test on M14; 0.736 µM (active) in the test on MDA-MB-231; 0.173 µM (active) in the test on MDA-MB-435. Further, the GI50 with MOLT-4 is 4.09 µM (inactive); in the test on NCI-H23, 0.809 µM (active); with NCI-H460, 1.09 µM (active); in the test with OVCAR-4, 1.92 µM (inactive); in the test on SF-539 it was 1.59 µM (inactive); in the test with SK-MEL-5, 0.385 µM (active). Further, the GI50 in the test with SW-620 is 1.4 µM (inactive); in the test on UO-31 it was 0.916 µM (active).
Turning to `Cc1ccccc1C1CC(=O)CC(c2ccccc2C)C12C(=O)NC(=S)NC2=O` (stereo not given), the GI50 in the test on A549 is 29.5 µM (inactive); with ACHN, 18.4 µM (inactive); in the test on HCC 2998, 9.64 µM (inactive); with HCT-116, 20.5 µM (inactive); in the test on HL-60, 21 µM (inactive); in the test with HT-29, 22.3 µM (inactive). Moreover, the GI50 was 29.1 µM (inactive) in the test with Hs-578T; 39.5 µM (inactive) in the test with K562; 17.2 µM (inactive) in the test on LOX IMVI; 24.3 µM (inactive) with M14; 31.3 µM (inactive) in the test on MDA-MB-231; 20 µM (inactive) with MDA-MB-435. The GI50 was 42.4 µM (inactive) in the test with MOLT-4; 35.2 µM (inactive) in the test with NCI-H23; 19.4 µM (inactive) in the test on NCI-H460; 37.5 µM (inactive) in the test on OVCAR-4; 20.9 µM (inactive) in the test with SF-539; 17.2 µM (inactive) with SK-MEL-5. Also, the GI50 in the test with SW-620 is 28.5 µM (inactive); with UO-31 it was 17.9 µM (inactive).
As for `COC(=O)[C@@H]1C[C@H]([Se]c2ccccc2)CN1C(=O)OCc1ccccc1`, the GI50 in the test on A549 was 29.6 µM (inactive); in the test with ACHN, 28.1 µM (inactive); with HCC 2998, 87.9 µM (inactive); with HCT-116, 34.1 µM (inactive); in the test on HL-60 it was 22.6 µM (inactive); in the test with HT-29, 26 µM (inactive). Besides, the GI50 with Hs-578T is 64.9 µM (inactive); with K562, 26.8 µM (inactive); with LOX IMVI, 12.6 µM (inactive); in the test on M14, 29.8 µM (inactive); with MDA-MB-231 it was 48.9 µM (inactive); with MDA-MB-435, 24.3 µM (inactive). Further, the GI50 is 22 µM (inactive) in the test with MOLT-4; 20.4 µM (inactive) in the test on NCI-H23; 24.8 µM (inactive) with NCI-H460; 24.8 µM (inactive) in the test on OVCAR-4; 39.8 µM (inactive) with SF-539; 16.9 µM (inactive) in the test on SK-MEL-5. For the same compound, the GI50 was 52.6 µM (inactive) in the test on SW-620 and 24.4 µM (inactive) in the test on UO-31.
